Assay results reported in patent US12384768B2, “Isoxazole carboxylic acids as LPA antagonists” (BRISTOL-MYERS SQUIBB COMPANY, priority 2019, dated 2025).

Columns and labels:
[1] = tested on: human foetal lung fibroblasts; conditions: Tager et al.; cited from earlier work
[2] = tested on: UUO mice; conditions: cited from earlier work
[3] = tested on: mouse epithelial renal cell line, MCT; conditions: MCT cells, co-treatment with LPA; cited from earlier work
[4] = tested on: pancreatic cancer cell lines; conditions: cited from earlier work
[5] = target: T1, human LPA1 (Homo sapiens, UniProt Q92633); assay: LPA1 functional antagonist assay (calcium flux); assay type: cell-based; conditions: CHO cells overexpressing human LPA1; inhibition of calcium flux induced by 10 nM LPA; read-out: hLPA1 IC50
T1 construct: expressed in transfected cells; host or cells: Chinese hamster ovary (CHO) cells
T1 sequence (Q92633 whole entry): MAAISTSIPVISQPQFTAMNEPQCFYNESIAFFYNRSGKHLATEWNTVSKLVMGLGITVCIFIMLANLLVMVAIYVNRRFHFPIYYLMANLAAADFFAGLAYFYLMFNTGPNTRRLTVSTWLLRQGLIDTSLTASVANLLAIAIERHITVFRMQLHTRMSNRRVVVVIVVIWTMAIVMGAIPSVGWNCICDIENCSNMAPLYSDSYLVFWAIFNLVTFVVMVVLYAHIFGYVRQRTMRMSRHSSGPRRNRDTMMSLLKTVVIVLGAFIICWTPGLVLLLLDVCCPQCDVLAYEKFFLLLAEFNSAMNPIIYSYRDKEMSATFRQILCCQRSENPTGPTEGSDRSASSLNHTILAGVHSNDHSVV
Protocol: The effectiveness of compounds of the present invention as LPA1 inhibitors can be determined in an LPA1 functional antagonist assay as follows:
Chinese hamster ovary cells overexpressing human LPA1 were plated overnight (15,000 cells/well) in poly-D-lysine coated 384-well microplates (Greiner bio-one, Cat #781946) in DMEM/F12 medium (Gibco, Cat #11039). Following overnight culture, cells were loaded with calcium indicator dye (AAT Bioquest Inc, Cat #34601) for 30 minutes at 37° C. The cells were then equilibrated to room temperature for 30 minutes before the assay. Test compounds solubilized in DMSO were transferred to 384 well non-binding surface plates (Corning, Cat #3575) using the Labcyte Echo acoustic dispense and diluted with assay buffer [1×HBSS with calcium/magnesium (Gibco Cat #14025-092), 20 mM HEPES (Gibco Cat #15630-080) and 0.1% fatty acid free BSA (Sigma Cat #A9205)] to a final concentration of 0.5% DMSO. Diluted compounds were added to the cells by FDSS6000 (Hamamatsu) at final concentrations ranging from 0.08 nM to 5 μM. and were then incubated for 20 min at room temperature at which time LPA (Avanti Polar Lipids Cat #857130C) was added at final concentrations of 10 nM to stimulate the cells. The compound IC50 value was defined as the concentration of test compound which inhibited 50% of the calcium flux induced by LPA alone. IC50 values were determined by fitting data to a 4-parameter logistic equation (GraphPad Prism, San Diego CA).

[6] = tested on: IPF patients; conditions: 26-week clinical trial, IPF patients (Palmer et al.); cited from earlier work
[7] = tested on: nerve-injured mice; conditions: pretreatment, nerve-injured mice (Inoue et al.); cited from earlier work

Row | Compound | IC50 [5] | further results
1 | Cc1noc(-c2ccc(CSCCC(=O)O)cc2)c1NC(=O)OC(C)c1ccccc1Cl (stereo not drawn) [Ki16425] |  | chemotaxis of human foetal lung fibroblasts induced by BAL from IPF patients [1]: blocked; development of renal fibrosis, profile compared with LPA1 (-/-) mice [2]: closely resembled the profile of LPA1 (−/−) mice; LPA-induced expression of CTGF [3]: almost completely suppressed; LPA-induced and ascites-induced invasion activity ([4]; highly peritoneal metastatic pancreatic cancer cell line): blocked; in vitro migration in response to LPA and peritoneal fluid (ascites) ([4]; pancreatic cancer cell lines (Yamada et al.)): effectively blocked
2 | CCCCN(C)C(=O)OCc1c(C)noc1-c1ccc(O[C@@H]2C[C@H](C(=O)O)C[C@@H]3C[C@@H]32)cn1 (racemic) [Example 13, (±)-(1S,3R,5R,6S)-5-((6-(4-(((butyl(methyl)carbamoyl)oxy)methyl)-3-methyl-isoxazol-5-yl)pyridin-3-yl)oxy)bicyclo[4.1.0]heptane-3-carboxylic acid] | 0.022 µM | 
3 | CCCCN(C)C(=O)OCc1c(C)noc1-c1ccc(OC2CCCC3C(C(=O)O)C23)cc1 (stereo not drawn) [Example 18] | 0.973 µM | 
4 | Cc1noc(-c2ccc(O[C@H]3CCO[C@@H](C(=O)O)C3)cc2)c1COC(=O)N(C)CCC(C)C (racemic) [Example 7] | 0.2 µM | 
5 | Cc1noc(-c2ccc(O[C@H]3CCO[C@@H](C(=O)O)C3)cc2)c1COC(=O)N(C)C1CCCC1 (racemic) [Example 6, (±)-cis-4-(4-(4-(((cyclopentyl(methyl)carbamoyl)oxy)methyl)-3-methylisoxazol-5-yl)phenoxy)tetrahydro-2H-pyran-2-carboxylic acid] | 0.29 µM | 
6 | Cc1noc(-c2ccc(-c3ccc(C4(C(=O)O)CC4)cc3)cc2)c1NC(=O)O[C@H](C)c1ccccc1 [BMS-986020] |  | rate of FVC (forced vital capacity) decline [6]: significantly reduce
7 | Cc1noc(-c2ccc(O[C@@H]3C[C@H](C(=O)O)C[C@H]4C[C@H]43)cc2)c1COC(=O)N(C)C1CCCC1 (racemic) [Example 12, (±)-(1R,3R,5R,6R)-5-(4-(4-(((cyclopentyl(methyl)carbamoyl)oxy)methyl)-3-methylisoxazol-5-yl)phenoxy)bicyclo[4.1.0]heptane-3-carboxylic acid] | 0.197 µM | 
8 | Cc1noc(-c2ccc(OC3CCCC4C(C(=O)O)C34)cc2)c1COC(=O)N(C)CC1CCC1 (stereo not drawn) [Example 19] | 1.34 µM | 
9 | Cc1noc(-c2ccc(O[C@H]3CCO[C@H](C(=O)O)C3)cc2)c1COC(=O)N(C)C1CCCC1 (racemic) [Example 5, (±)-trans-4-(4-(4-(((cyclopentyl(methyl)carbamoyl)oxy)methyl)-3-methylisoxazol-5-yl)phenoxy)tetrahydro-2H-pyran-2-carboxylic acid] | 0.56 µM | 
10 | Cc1noc(-c2ccc(O[C@@H]3COC[C@H](C(=O)O)C3)cc2)c1COC(=O)N(C)C1CCCC1 (racemic) [Example 2, (±)-cis-5-(4-(4-(((cyclopentyl(methyl)carbamoyl)oxy)methyl)-3-methyl-isoxazol-5-yl)phenoxy)tetrahydro-2H-pyran-3-carboxylic acid)] | 0.145 µM | 
11 | Cc1noc(-c2ccc(OC3CC4C(C3)C4C(=O)O)cc2)c1COC(=O)N(C)CC1CCC1 (racemic) [Example 15, (±)-3-(4-(4-((((Cyclobutylmethyl)(methyl)carbamoyl)oxy)methyl)-3-methyl-isoxazol-5-yl)phenoxy)bicyclo[3.1.0]hexane-6-carboxylic acid] | 0.563 µM | 
12 | Cc1noc(-c2ccc(O[C@@H]3COC[C@H](C(=O)O)C3)cc2)c1COC(=O)N(C)CCC(C)C [Example 4] | 0.102 µM | 
13 | Cc1noc(-c2ccc(O[C@H]3CCO[C@H](C(=O)O)C3)cc2)c1COC(=O)N(C)CCC(C)C [Example 8] | 1.1 µM | 
14 | Cc1noc(-c2ccc(OC3CC(C(=O)O)CC4CC43)cc2)c1COC(=O)N(C)C1CCCC1 (racemic) [Example 11, (±)-(1R,3R,5R,6R)-5-(4-(4-(((cyclopentyl(methyl)carbamoyl)oxy)methyl)-3-methylisoxazol-5-yl)phenoxy)bicyclo[4.1.0]heptane-3-carboxylic acid] | 0.065 µM | 
15 | Cc1noc(-c2ccc(OC3CCC4C(C(=O)O)C34)cc2)c1COC(=O)N(C)C1CCCC1 (racemic) [Example 14, (±)-2-(4-(4-(((Cyclopentyl(methyl)carbamoyl)oxy)methyl)-3-methylisoxazol-5-yl)phenoxy)bicyclo[3.1.0]hexane-6-carboxylic acid] | 0.048 µM | 
16 | Cc1noc(-c2ccc(O[C@H]3C[C@H](C(=O)O)C[C@@H]4C[C@@H]43)cc2)c1COC(=O)N(C)C1CCCC1 (racemic) [Example 10, (±)-(1S,3R,5S,6S)-5-(4-(4-(((cyclopentyl(methyl)carbamoyl)oxy)methyl)-3-methyl-isoxazol-5-yl)phenoxy) bicyclo[4.1.0]heptane-3-carboxylic acid] | 0.182 µM | 
17 | Cc1noc(-c2ccc(OC3CCCC4C(C(=O)O)C34)cc2)c1COC(=O)N(C)C1CCCC1 (racemic) [Example 17, (±)-2-(4-(4-(((Cyclopentyl(methyl)carbamoyl)oxy)methyl)-3-methylisoxazol-5-yl)phenoxy) bicyclo [4.1.0]heptane-7-carboxylic acid] | 0.396 µM | 
18 | Cc1noc(-c2ccc(O[C@@H]3CCO[C@H](C(=O)O)C3)cc2)c1COC(=O)N(C)CCC(C)C (single isomer, unassigned) [Example 9] | 0.041 µM | 
19 | C[C@@H](N)[C@H]1CC[C@H](C(=O)Nc2ccncc2)CC1 [Example Y-27632] |  | allodynia and hyperalgesia [7]: completely abolished
20 | CCCCN(C)C(=O)OCc1c(C)noc1-c1ccc(OC2CC3C(C2)C3C(=O)O)cc1 (stereo not drawn) [Example 16] | 0.372 µM | 
21 | Cc1noc(-c2ccc(O[C@H]3COC[C@H](C(=O)O)C3)cc2)c1COC(=O)N(C)C1CCCC1 (racemic) [Example 1, (±)-trans-5-(4-(4-(((cyclopentyl(methyl)carbamoyl)oxy)methyl)-3-methylisoxazol-5-yl)phenoxy)tetrahydro-2H-pyran-3-carboxylic acid)] | 0.14 µM | 
22 | Cc1noc(-c2ccc(OC3CCCC4C(C(=O)O)C34)cc2)c1COC(=O)N(C)CC1CC1 (stereo not drawn) [Example 20] | 1.52 µM | 
23 | Cc1noc(-c2ccc(O[C@@H]3COC[C@@H](C(=O)O)C3)cc2)c1COC(=O)N(C)CCC(C)C (racemic) [Example 3] | 0.218 µM | 
